One compound from US9962367B2, “Oral formulations of pyrrolidine derivatives” (ObsEva S.A., priority 2013, dated 2018) can be followed below.

This data set in a line: Qualitative solubility/crystallisation tests on 15 mg scale. It counts as physicochemical.

Structures are written as SMILES.

Take `CO/N=C1/C[C@@H](CO)N(C(=O)c2ccc(-c3ccccc3C)cc2)C1` [(3Z,5S), (3Z,5S)-5-(hydroxymethyl)-1-[(2′-methyl-1,1′-biphenyl-4-yl)carbonyl]pyrrolidin-3-one-O-methyloxime]: the “Dissolves in” value reads like this: (solvent DIPE, hot) 40 vol hot; (solvent IPA, hot) 4 vol hot; (solvent MIBK, hot) 4 vol hot; (solvent THF, cold) 4 vol cold; (solvent tBuOH, hot) 6 vol hot; (solvent toluene, cold) 2 vol cold.
